Like-named read-outs stand apart in the source and are kept apart here.

In one assay the target is T1, PRMT5/MEP50 (Homo sapiens, UniProt O14744).
T1 construct: Full-length human PRMT5 (NP_006100)
Kind of assay: PRMT5/MEP50 enzyme assay on peptide substrates (3H-SAM Flashplate). Type of assay: biochemical. The following applies: PRMT5/MEP50 10 nM, H4 1-15aa peptide 100 nM, 3H-SAM 1 μM.

The test system of the next assay is Z-138 cells. Briefly: Z-138 long term proliferation assay (Cell Titer Glo). In kind it is cell-based. The following applies: Homo sapiens; for GI50: 192 h, Z-138 cells, cell viability, day 8, read-out: PRMT5 Z138 GI50 Day 8 μM; for IC50: Z-138, 192 h, summary of Table 1, read-out: IC50 value (all the three assays): Z138 GI50 Day 8. The gist of the method:
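Z-138 cells exposed to ten-point 3-fold dilutions (top 10 μM, 0.3% DMSO) for 96 h at 37° C., 5% CO2, then re-dosed for four more days.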
(In ATP-based viability assays light output follows the ATP content of the culture.)

Assay [1] deals with Symmetric di-methyl arginine in Z-138 cells. Kind of assay: Z-138 methylation assay, ELISA for detection of symmetric di-methyl arginine. In kind it is cell-based. The following applies: Homo sapiens. A general note: In an ELISA, binding on a coated surface is turned into a signal by an enzyme label.
Setting [2] is: Z-138, 96 h, summary of Table 1, read-out: IC50 value (all the three assays): Z138 SDMA ELISA Day 4.
[3] abbreviates: Z-138 cells, 96 h (day 4), read-out: PRMT5 Z138 SDMA ELISA Day 4 μM.

T1 sequence (O14744 whole entry): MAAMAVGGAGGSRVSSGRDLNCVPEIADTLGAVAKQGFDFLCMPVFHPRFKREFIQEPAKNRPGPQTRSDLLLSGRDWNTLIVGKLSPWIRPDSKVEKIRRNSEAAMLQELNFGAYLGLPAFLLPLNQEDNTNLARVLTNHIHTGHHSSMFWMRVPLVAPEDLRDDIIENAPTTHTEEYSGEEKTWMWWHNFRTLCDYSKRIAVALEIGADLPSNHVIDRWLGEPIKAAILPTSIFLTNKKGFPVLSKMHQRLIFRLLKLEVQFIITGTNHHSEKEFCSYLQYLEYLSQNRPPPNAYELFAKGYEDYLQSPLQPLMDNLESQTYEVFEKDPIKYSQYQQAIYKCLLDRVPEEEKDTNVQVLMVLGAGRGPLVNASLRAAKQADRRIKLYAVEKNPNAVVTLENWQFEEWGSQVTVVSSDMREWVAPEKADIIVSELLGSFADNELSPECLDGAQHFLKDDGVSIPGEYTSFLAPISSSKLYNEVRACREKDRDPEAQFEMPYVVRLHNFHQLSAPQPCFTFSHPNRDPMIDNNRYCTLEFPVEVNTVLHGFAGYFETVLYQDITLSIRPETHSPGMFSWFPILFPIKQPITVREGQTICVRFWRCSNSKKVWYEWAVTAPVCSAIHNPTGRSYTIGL
T1 sequence (Q9BQA1 whole entry partner): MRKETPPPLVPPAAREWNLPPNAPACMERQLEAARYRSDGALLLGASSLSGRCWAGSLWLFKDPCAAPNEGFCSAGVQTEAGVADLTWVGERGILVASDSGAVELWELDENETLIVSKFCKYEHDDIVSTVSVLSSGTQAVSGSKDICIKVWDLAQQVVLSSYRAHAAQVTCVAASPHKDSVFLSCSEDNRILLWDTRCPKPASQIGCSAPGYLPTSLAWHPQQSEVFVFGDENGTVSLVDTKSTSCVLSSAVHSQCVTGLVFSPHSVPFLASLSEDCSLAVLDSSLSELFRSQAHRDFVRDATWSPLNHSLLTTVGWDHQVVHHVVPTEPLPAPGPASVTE

In general, GI50 refers to the concentration that inhibits growth by half. On to `O=C(NC[C@H](O)CN1CCc2ccccc2C1)c1cn2c(n1)CCC(c1ccc(F)cc1)C2` (stereo partly drawn) [Example 115, N—((S)-3-(3,4-dihydroisoquinolin-2(1H)-yl)-2-hydroxypropyl)-6-(4-fluorophenyl)-5,6,7,8-tetrahydroimidazo[1,2-a]pyridine-2-carboxamide], for which the IC50 (against PRMT5/MEP50; with Z-138 cells; in assay [1] (setting [2]); in assay [1] (setting [3])) was 10 to 1000 nM in each case. The GI50 in the assay with Z-138 cells fell in the range of 10 to 1000 nM.

Take `O=C(NC[C@H](O)CN1CCc2ccccc2C1)c1cn2c(n1)COC(c1ccc(F)cc1)C2` (stereo partly drawn) [Example 116, N—((S)-3-(3,4-dihydroisoquinolin-2(1H)-yl)-2-hydroxypropyl)-6-(4-fluorophenyl)-5,6-dihydro-8H-imidazo[2,1-c][1,4]oxazine-2-carboxamide]: the IC50 (against PRMT5/MEP50; in the assay on Z-138 cells; in assay [1] (setting [2]); in assay [1] (setting [3])) was 10 to 1000 nM throughout. Further, in the assay with Z-138 cells, the GI50 fell in the range of 10 to 1000 nM.

For the molecule `O=C(NC[C@H](O)CN1CCc2ccccc2C1)c1cn2c(n1)CC[C@@H](C(F)(F)F)C2` [Example 121A, (R)—N—((S)-3-(3,4-dihydroisoquinolin-2(1H)-yl)-2-hydroxypropyl)-6-(trifluoromethyl)-5,6,7,8-tetrahydroimidazo[1,2-a]pyridine-2-carboxamide], the IC50 (against PRMT5/MEP50; in the assay on Z-138 cells; in assay [1] (setting [2]); in assay [1] (setting [3])) was 10 to 1000 nM each time. Besides, the 50% growth inhibitory concentration (GI50) with Z-138 cells is 10 to 1000 nM.

For `O=C(NC[C@H](O)CN1CCc2ccccc2C1)c1cn2c(n1)CC[C@H](C(F)(F)F)C2` [Example 121B, (S)—N—((S)-3-(3,4-dihydroisoquinolin-2(1H)-yl)-2-hydroxypropyl)-6-(trifluoromethyl)-5,6,7,8-tetrahydroimidazo[1,2-a]pyridine-2-carboxamide], the IC50 against PRMT5/MEP50 fell in the range of 1000 to 5000 nM; in assay [1] (setting [3]), 10 to 1000 nM. Besides, in the assay on Z-138 cells, the GI50 fell in the range of 10 to 1000 nM.

The values are drawn from patent US11459338B2, “Heterocyclic compounds as PRMT5 inhibitors” (JUBILANT EPISCRIBE LLC, priority 2018, dated 2022).
